# pIC50: −log10 of the molar value. Read-outs that look alike come from different tables or passages of the source.
# How the values were obtained:
# [1] = Single-dose pharmacokinetic study in mice; format: in vivo, male C57BL/6 mice
# Protocol: Objectives: To evaluate the pharmacokinetic behavior in male C57BL/6 mice and to determine the drug concentrations of the compound in the plasma, liver and cerebrospinal fluid after a single dose.
# Procedures: Healthy adult male C57BL/6 mice were selected for intragastric administration. The candidate compound was mixed with an appropriate amount of 10% DMSO/90% (20% hydroxypropyl-@-cyclodextrin), vortexed and sonicated to prepare a 0.5 mg/mL clear solution for later use. After the mice were administered intravenously at 1 mg/kg and orally at 5 mg/kg, whole blood was collected at certain time points. Plasma was separated, and liver and cerebrospinal fluid were collected. After pretreatment of the samples, the drug concentration was measured by LC-MS/MS, and pharmacokinetic parameters were calculated using Phoenix WinNonlin software.
# [2] = Preliminary stability examination at 60° C. and 75% humidity; format: physicochemical; conditions: 60° C. 75% RH
# Protocol: 1. Preliminary Stability Examination • Examination conditions: The stability of crystalline form A and crystalline form B was simultaneously examined at 60° C. and 75% humidity.
# [3] = Accelerated stability test at 40° C.±2° C. and 75±5% RH; format: physicochemical; conditions: 40° C. ± 2° C./75 ± 5% RH
# Protocol: 2. Accelerated Test • Examination conditions: Samples of crystalline form A of the compound of formula (I) were packed into double-layer pharmaceutical low-density polyethylene bags. Each layer of the pharmaceutical low-density polyethylene bag was sealed, then the bags were put into aluminum foil bags, and the aluminum foil bags were heat-sealed. Accelerated test was conducted at 40° C.±2° C. and 75±5% RH.
# [4] = test system: MDA-MB-436 cells with BRCA1 mutation; experiment: Anti-proliferation study on MDA-MB-436 cells (CellTiter-Glo); format: cell-based; conditions: Homo sapiens, MDA-MB-436, 168 h; 7 days incubation
# Protocol: Materials: test compounds; RPMI-1640 medium; fetal bovine serum; penicillin/streptomycin antibiotic; MDA-MB-436 cells; Envision Multimode Plate Reader (PerkinElmer). MDA-MB-436 cells were seeded in a white 96-well plate by adding 80 μL of cell suspension (containing 3000 MDA-MB-436 cells) to each well. The cell plate was incubated in a CO2 incubator overnight. The test compounds were serially 5-fold diluted to the 8th concentration with a multichannel pipette, i.e., from 2 mM to 26 nM, in duplicate. 78 μL of medium was added to an intermediate plate, and the serially diluted compound was transferred to the intermediate plate at 2 μL per well. After being mixed well, the mixture was transferred to the cell plate at 20 μL per well. […] Another cell plate was provided for reading signal values on the day of compound addition and these signal values were used as Max values in data analysis. Promega CellTiter-Glo was added to the cell plate at 25 μL per well and the luminescence signals were stabilized by incubation for 10 min at room temperature. Readings were taken using a PerkinElmer Envision Multimode Plate Reader. […]
smiles,measurement,setting,value
"CNCc1ccc(-c2[nH]c3cc(F)cc4c3c2CCNC4=O)cc1 [Rucaparib, reference compound]",Maximum concentration,[1]; IV: 1 mg/kg PO: 5 mg/kg,24.8 nM
same,AUC(0-t),"[1]; male, C57BL/6, mouse, plasma, IV 1 mg/kg, read-out: AUC0-last (intravenous injection)",0.255 µM·h
same,half-life,"[1]; male, C57BL/6, mouse, plasma, IV: 1 mg/kg PO: 5 mg/kg",1.78 h
same,AUC(0-t),"[1]; male, C57BL/6, mouse, plasma, PO 5 mg/kg, read-out: AUC0-last (oral)",0.145 µM·h
C[C@]1(c2ccc(-c3[nH]c4cc(F)cc5c4c3CONC5=O)cc2)CCCN1.Cl [Crystalline form A],"Preliminary stability examination (content, %) Day 0",[2],99.73%
same,"Preliminary stability examination (content, %) Day 10",[2],99.72%
same,Appearance,[3]; Initial values,Earthy yellow
same,Content,[3]; Initial values,98.0%
same,Isomer,[3]; Initial values,Not detectable
same,Total impurities,[3]; Initial values,0.45%
same,Water content,[3]; Initial values,2.07%
same,Appearance,[3]; Month 1,Earthy yellow
same,Content,[3]; Month 1,96.2%
same,Isomer,[3]; Month 1,Not detectable
same,Total impurities,[3]; Month 1,0.75%
same,Water content,[3]; Month 1,2.50%
same,Appearance,[3]; Month 2,Earthy yellow
same,Content,[3]; Month 2,96.9%
same,Isomer,[3]; Month 2,Not detectable
same,Total impurities,[3]; Month 2,0.78%
same,Water content,[3]; Month 2,2.26%
same,Appearance,[3]; Month 3,Earthy yellow
same,Content,[3]; Month 3,96.9%
same,Isomer,[3]; Month 3,Not detectable
same,Total impurities,[3]; Month 3,0.62%
same,Water content,[3]; Month 3,1.89%
same,Appearance,[3]; Month 6,Earthy yellow
same,Content,[3]; Month 6,97.5%
same,Isomer,[3]; Month 6,Not detectable
same,Total impurities,[3]; Month 6,0.93%
same,Water content,[3]; Month 6,2.14%
same,pIC50,[4],8.08
C[C@]1(c2ccc(-c3[nH]c4cc(F)cc5c4c3CONC5=O)cc2)CCCN1.Cl [Crystalline form B],"Preliminary stability examination (content, %) Day 0",[2],99.09%
same,"Preliminary stability examination (content, %) Day 10",[2],98.93%

# — patent publication US20230331739A1, “INDOLO HEPTAMYL OXIME ANALOG CRYSTAL AS PARP INHIBITOR AND METHOD FOR PREPARING SAME” (CHIA TAI TIANQING PHARMACEUTICAL GROUP CO., LTD., priority 2020, published 2023)
